For series [1], the system named is U-87 MG. In words: Cytotoxicity against human U87 cells assessed as reduction in cell viability at 0.008 to 1 uM preincubated for 24 hrs under hypoxic condition followed by media removal and irradiated with 650 nm 10 mW/cm2 light for 15 mins under hypoxic condition prior to media replacement and measured after 24 hrs by MTT assay. It is filed as functional, cell-based. The note with it: U-87MG ATCC, dose 0.008-1 µM.

In series [2] the test system is SK-MEL-28. Briefly: Induction of apoptosis in human SK-MEL-28 cells assessed as late apoptotic cells at 1 uM preincubated for 24 hrs under hypoxic condition followed by media removal and irradiated with 650 nm 10 mW/cm2 light for 15 mins under hypoxic condition by Annexin V-FITC/propidium iodide staining based flow cytometry (reference value: 1.95%). It counts as functional.

The subject of series [3] is SK-MEL-28. Briefly: Induction of ROS generation in human SK-MEL-28 cells at 1 uM incubated for 24 hrs under normoxic condition prior to DHE addition for 30 mins followed by media removal and irradiated with 650 nm 10 mW/cm2 light for 15 mins under normoxic condition by DAPI staining based fluorescence microscopy. It is filed as functional, cell-based.
The test system of series [4] is SK-MEL-28. Briefly: Induction of apoptosis in human SK-MEL-28 cells assessed as early apoptotic cells at 1 uM preincubated for 24 hrs under hypoxic condition followed by media removal and irradiated with 650 nm 10 mW/cm2 light for 15 mins under hypoxic condition by Annexin V-FITC/propidium iodide staining based flow cytometry (reference value: 1.8%). It is filed as functional.

Series [5] concerns SK-MEL-28. In words: Induction of apoptosis in human SK-MEL-28 cells assessed as early apoptotic cells at 0.5 uM preincubated for 24 hrs under normoxic condition followed by media removal and irradiated with 650 nm 10 mW/cm2 light for 15 mins under normoxic condition by Annexin V-FITC/propidium iodide staining based flow cytometry (reference value: 1.8%). It is filed as functional.

Series [6] relates to SK-MEL-28. In words: Induction of apoptosis in human SK-MEL-28 cells assessed as late apoptotic cells at 2 uM preincubated for 24 hrs under normoxic condition followed by media removal and irradiated with 650 nm 10 mW/cm2 light for 15 mins under normoxic condition by Annexin V-FITC/propidium iodide staining based flow cytometry (reference value: 1.95%). It is filed as functional.

Series [7] concerns SK-MEL-28. In words: Induction of apoptosis in human SK-MEL-28 cells assessed as viable cells at 2 uM preincubated for 24 hrs under hypoxic condition followed by media removal and irradiated with 650 nm 10 mW/cm2 light for 15 mins under hypoxic condition by Annexin V-FITC/propidium iodide staining based flow cytometry (reference value: 93.62%). It is filed as functional. As to conditions: SK-MEL-28, light or radiation study, read-out: Activity.

Series [8] relates to SK-MEL-28. In words: Induction of apoptosis in human SK-MEL-28 cells assessed as viable cells at 2 uM preincubated for 24 hrs under normoxic condition followed by media removal and irradiated with 650 nm 10 mW/cm2 light for 15 mins under normoxic condition by Annexin V-FITC/propidium iodide staining based flow cytometry (reference value: 93.62%). As to conditions: SK-MEL-28, light or radiation study, read-out: Activity. It is filed as functional.

Series [9] is described as follows: Induction of ROS generation in methanol solution assessed as reduction in DPBF absorption peak at 10 uM irradiated with 650 nm 10 mW/cm2 light for upto 9 mins by DPBF probe based UV-vis absorption spectra analysis. It counts as functional.
Series [10] concerns SK-MEL-28. Briefly: Induction of apoptosis in human SK-MEL-28 cells assessed as late apoptotic cells at 0.5 uM preincubated for 24 hrs under normoxic condition followed by media removal and irradiated with 650 nm 10 mW/cm2 light for 15 mins under normoxic condition by Annexin V-FITC/propidium iodide staining based flow cytometry (reference value: 1.95%). It is filed as functional.

For series [11], the system named is SK-MEL-28. In words: Induction of apoptosis in human SK-MEL-28 cells preincubated for 24 hrs under normoxic condition followed by media removal and irradiated with 650 nm 10 mW/cm2 light for 15 mins under normoxic condition by Annexin V-FITC/propidium iodide staining based flow cytometry. It counts as functional, cell-based. As to conditions: dose 0.5-2 µM.
In series [12] the test system is A549. Briefly: Cytotoxicity against human A549 cells assessed as reduction in cell viability at 0.008 to 1 uM preincubated for 24 hrs under hypoxic condition followed by media removal and irradiated with 650 nm 10 mW/cm2 light for 15 mins under hypoxic condition prior to media replacement and measured after 24 hrs by MTT assay. It counts as functional, cell-based. The note with it: dose 0.008-1 µM.

Series [13] in a line: Dark toxicity in human SK-MEL-28 cells assessed as reduction in cell viability by MTT assay. It is filed as cell-based.
Series [14] concerns SK-MEL-28. Briefly: Induction of ROS generation in human SK-MEL-28 cells at 1 uM incubated for 24 hrs under hypoxic condition prior to DHE addition for 30 mins followed by media removal and irradiated with 650 nm 10 mW/cm2 light for 15 mins under hypoxic condition by DAPI staining based fluorescence microscopy. It is filed as functional, cell-based.
The subject of series [15] is A549. Briefly: Cytotoxicity against human A549 cells assessed as reduction in cell viability at 0.008 to 1 uM preincubated for 24 hrs under normoxic condition followed by media removal and irradiated with 650 nm 10 mW/cm2 light for 15 mins under normoxic condition prior to media replacement and measured after 24 hrs by MTT assay. It counts as functional, cell-based. The note with it: dose 0.008-1 µM.

The subject of series [16] is SK-MEL-28. Briefly: Induction of apoptosis in human SK-MEL-28 cells assessed as viable cells at 1 uM preincubated for 24 hrs under normoxic condition followed by media removal and irradiated with 650 nm 10 mW/cm2 light for 15 mins under normoxic condition by Annexin V-FITC/propidium iodide staining based flow cytometry (reference value: 93.62%). It counts as functional. The note with it: SK-MEL-28, light or radiation study, read-out: Activity.

Series [17] has as its system SK-MEL-28. In words: Induction of apoptosis in human SK-MEL-28 cells assessed as late apoptotic cells at 2 uM preincubated for 24 hrs under hypoxic condition followed by media removal and irradiated with 650 nm 10 mW/cm2 light for 15 mins under hypoxic condition by Annexin V-FITC/propidium iodide staining based flow cytometry (reference value: 1.95%). It is filed as functional.

Series [18] deals with U-87 MG. In words: Cytotoxicity against human U87 cells assessed as reduction in cell viability at 0.008 to 1 uM preincubated for 24 hrs under normoxic condition followed by media removal and irradiated with 650 nm 10 mW/cm2 light for 15 mins under normoxic condition prior to media replacement and measured after 24 hrs by MTT assay. It is filed as functional, cell-based. The note with it: U-87MG ATCC, dose 0.008-1 µM.

The subject of series [19] is SK-MEL-28. Briefly: Induction of apoptosis in human SK-MEL-28 cells assessed as necrotic cells at 2 uM preincubated for 24 hrs under normoxic condition followed by media removal and irradiated with 650 nm 10 mW/cm2 light for 15 mins under normoxic condition by Annexin V-FITC/propidium iodide staining based flow cytometry (reference value: 2.63%). It is filed as functional.

The test system of series [20] is SK-MEL-28. In words: Induction of apoptosis in human SK-MEL-28 cells assessed as necrotic cells at 2 uM preincubated for 24 hrs under hypoxic condition followed by media removal and irradiated with 650 nm 10 mW/cm2 light for 15 mins under hypoxic condition by Annexin V-FITC/propidium iodide staining based flow cytometry (reference value: 2.63%). It is filed as functional.

Activity calls are given as the source filed them. The rule behind the calls is not given here. Some results are limits rather than exact numbers.

Turning to `CCN(CC)c1ccc2nc3c4ccccc4/c(=N\CCCCCCNC(=O)c4cc(Oc5ccc(NC(=O)Nc6ccc(Cl)c(C(F)(F)F)c6)cc5)ccn4)cc-3sc2c1`, the result (with U-87 MG [1]; in the series on SK-MEL-28 [3]; in series [9]; in the series with A549 [12]; with SK-MEL-28 [14]; in the series with A549 [15]) was Active. In addition, the outcome in the series on U-87 MG [18] was Active. Also, the Activity in the series with SK-MEL-28 [2] is 7.57%; with SK-MEL-28 [4], 3.97%; with SK-MEL-28 [5], 12.86%; with SK-MEL-28 [6], 26.72%; in the series on SK-MEL-28 [10], 2.86%; in the series with SK-MEL-28 [11], “Dose-Dependent Effect”. Besides, the Activity with SK-MEL-28 [17] turned out to be 17.67%; in the series with SK-MEL-28 [19], 6.54%; with SK-MEL-28 [20], 18.77%. The viability at 2 µM in the series with SK-MEL-28 [7] amounted to 53%; in the series on SK-MEL-28 [8], 27.2%. In addition, the half-inhibitory concentration (IC50) in [13] is greater than 10 µM. The viability at 1 µM with SK-MEL-28 [16] was determined as 64.6%.
